Experimental data as given in PubChem BioAssay (NCI).
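In this assay, cells in 96-well plates receive the compound at five concentrations for 48 hours. Endpoints are linearly interpolated between the surrounding concentrations. TGI is the concentration that stops growth completely.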

Assays:
Assay in all cases: NCI-60 cell line screen, 48 h
SF-268 CNS = test system: SF-268 CNS
UACC-62 melanoma = test system: UACC-62 melanoma
SNB-75 CNS = test system: SNB-75 CNS
K-562 leukemia = test system: K-562 leukemia
KM12 colon = test system: KM12 colon
MALME-3M melanoma = test system: MALME-3M melanoma
RXF 393 renal = test system: RXF 393 renal
HOP-62 NSCLC = test system: HOP-62 NSCLC
MOLT-4 leukemia = test system: MOLT-4 leukemia
MDA-N = test system: MDA-N
NCI-H226 lung = test system: NCI-H226 lung
HOP-92 NSCLC = test system: HOP-92 NSCLC
HCT-15 colon = test system: HCT-15 colon
NCI-H460 lung = test system: NCI-H460 lung
EKVX NSCLC = test system: EKVX NSCLC
HT29 colon = test system: HT29 colon
RPMI-8226 leukemia = test system: RPMI-8226 leukemia
SR leukemia = test system: SR leukemia
786-0 renal = test system: 786-0 renal

SMILES | TGI (SF-268 CNS) [µM] | TGI (UACC-62 melanoma) [µM] | TGI (SNB-75 CNS) [µM] | TGI (K-562 leukemia) [µM] | TGI (KM12 colon) [µM] | TGI (MALME-3M melanoma) [µM] | TGI (RXF 393 renal) [µM] | TGI (HOP-62 NSCLC) [µM] | TGI (MOLT-4 leukemia) [µM] | TGI (MDA-N) [µM] | TGI (NCI-H226 lung) [µM] | TGI (HOP-92 NSCLC) [µM] | TGI (HCT-15 colon) [µM] | TGI (NCI-H460 lung) [µM] | TGI (EKVX NSCLC) [µM] | TGI (HT29 colon) [µM] | TGI (RPMI-8226 leukemia) [µM] | TGI (SR leukemia) [µM] | TGI (786-0 renal) [µM]
CC(=O)O[C@H]1[C@@H](OC(C)=O)C(C)(C)/C=C/[C@H](C)C(=O)[C@@]2(OC(C)=O)C[C@@](C)(OC(C)=O)[C@H](OC(C)=O)[C@@H]2[C@H]2OC(=O)CC[C@@]2(OC(=O)c2ccccc2)[C@@H]1OCC(C)C | > 100 | > 100 | 66.2 | > 100 | > 100 | > 100 | > 100 | > 100 | > 100 | > 100 | > 100 | > 100 | > 100 | > 100 | > 100 | > 100 |  |  | 
CSCCC(NC(=O)OCc1ccccc1)NC(=O)OCc1ccccc1 |  |  | > 100 | > 100 |  |  |  | > 100 | > 100 | > 100 | > 100 | > 100 | > 100 | > 100 |  | > 100 | > 100 | > 100 | 
c1ccc(C2=NCCc3cc4c(cc32)OCO4)cc1 | > 100 | > 100 |  |  | > 100 | > 100 | > 100 | > 100 |  | > 100 |  |  |  |  | > 100 |  |  | > 100 | > 100
C#CCn1c(=O)c(Cl)cn(/C(=C/C(=O)OCC)C(=O)OCC)c1=O | 51.1 | 29.8 | 34.2 | 7 | > 70.5 | 8.5 | 4.18 | 37.8 | > 23.9 | 29.9 | > 59.5 | 22 | 25.2 | > 100 | 34.3 | 39.5 | 5.28 |  | 3.83
CC[C@@]12C=CC(=S)N(CCSc3ccccc3)[C@@H]1c1c(n(S(=O)(=O)c3ccc(OC)cc3)c3ccccc13)CC2 | > 100 | > 100 | > 100 | > 100 | > 100 | > 100 | > 100 | > 100 | > 100 | > 100 |  | > 100 | > 100 | > 100 | > 100 | > 100 |  |  | > 100
O=C(OCc1ccccc1)N1CCN(C(=O)OCc2ccccc2)CCN(C(=O)OCc2ccccc2)CCN(C(=O)OCc2ccccc2)CCN(C(=O)OCc2ccccc2)CC1 |  | > 100 | 96.6 |  | > 100 | 61.2 |  | > 100 | > 100 | > 100 | > 100 | > 100 | > 100 | > 100 | > 100 |  |  |  | 48.4
Cc1ccc(S(=O)(=O)NC(=O)NC(Cc2ccc(O)c(O)c2)C(=O)O)cc1 (configuration not stated) | 2.8 | > 100 |  | > 100 | > 100 | > 100 | > 100 | > 100 | > 100 | > 100 | > 100 | > 100 | > 100 | > 100 | > 100 | > 100 | > 100 |  | 34.6
O=[N+]([O-])c1ccc(Cl)cc1N/N=C/c1cccc2cccnc12 | > 100 | > 100 | > 100 | > 100 | > 100 |  | > 100 | > 100 | > 100 | > 100 |  |  | > 100 | > 100 | > 100 | > 100 | > 100 | 38 | > 100
CSc1nc2c(=O)n(-c3ccccc3)c(=S)n(-c3ccccc3)c2s1 | > 100 |  | 91.7 | > 100 | > 100 | > 100 | 94.4 | > 100 | > 100 | > 100 | 86.3 | 80.5 | > 100 | > 100 |  | > 100 | > 100 | > 100 | > 100
CC(NC(C#N)CC12CC3CC(CC(C3)C1)C2)c1ccccc1 (configuration not stated) | > 100 | > 100 |  | > 100 |  | > 100 |  | > 100 | > 100 | > 100 |  | 31.5 | > 100 | 67.1 | > 100 | > 100 | 44 | > 100 | 
CC(=O)OCC1OC(O/C=C(\CN=[N+]=[N-])C(C)=O)C(OC(C)=O)C(OC(C)=O)C1OC(C)=O (configuration not stated) | 56.9 | 25.3 | 33.3 | 23.6 | 40.3 | 10.3 |  | 70.7 | 10.5 | 30 |  | 56.6 | 18.9 | 48.9 | 34.7 | 27.2 | 5.18 | 7.69 | 18.2
CCN(CC)CCCOc1cc2c(cc1OC)C(=O)N1CCC[C@H]1C=N2 | > 100 | 54.3 |  | > 100 | 48.4 | > 100 | 60 | 92.1 | 50.2 |  | 65.8 | 70.9 | > 100 | > 100 | > 100 | 39.5 | 53.8 | > 100 | > 100
Cc1cc2nc(N3C(=O)/C(=C/c4ccc(Cl)cc4)N=C3c3ccccc3)sc2cc1C | > 100 | > 100 | 63.9 | > 100 | 92.3 |  | 57.9 | > 100 | > 100 | 30.3 |  | 56.5 | > 100 | > 100 | 91.2 | 63.2 | > 100 | > 100 | 92.1
COc1ccc(/C=N/NC(=O)c2cnc3[nH]c(=O)n(C)c(=O)c3c2)cc1 | > 100 | > 100 | 38.6 | > 100 | > 100 | > 100 | > 100 | > 100 | > 100 | > 100 | > 100 |  | > 100 | > 100 | > 100 | > 100 | > 100 |  | > 100
CCN1CCC(O)(c2ccc(Oc3ccc(C)cc3)cc2)C(C(=O)c2ccc(Oc3ccc(C)cc3)cc2)C1 (configuration not stated) | 32.9 | 24.5 | 20.4 | > 100 | 17.8 | 29.7 | 16.2 | 35.5 | 69.1 | 22.6 | 27.9 | 21.7 | 15.2 | 13.8 | 29 | 14.2 | 4.26 |  | 17.2
CC(=O)/C=C(\O)c1[nH]c(C(=O)O)cc1C1CCN(Cc2ccccc2)C1=O (configuration not stated) | 49.5 | 41.7 | 63.1 | 95.1 | > 100 | 46.3 | 30.2 | 32.8 | 53.9 | 33.8 |  | 58.8 | 38.4 | 32.3 | 60.6 | 89 | 49 |  | 47.6
c1ccc(N=C2SC3=NCCN3C2=Nc2ccccc2)cc1 |  | 22.7 | 43.3 | > 100 | 29.7 |  | 32.2 | 52.9 | 77 | 41.2 | 36.3 | 60.6 | 61.4 | 50.6 |  | 41.3 | 83.8 | > 100 | 
CC(C)OC(=O)[C@@H](O)[C@H](CO)C1=CC([Si](C)(C)c2ccccc2)=CON1 | > 100 | > 100 | 69.2 | > 100 | > 100 |  | > 100 | > 100 | > 100 |  | > 100 |  | > 100 | > 100 | > 100 | > 100 | > 100 | > 100 | > 100
NC1CC(=O)c2sccc21 (configuration not stated) | > 100 | > 100 | > 100 | > 100 | > 100 |  | > 100 | > 100 | > 100 |  | > 100 | > 100 | > 100 |  | > 100 | > 100 | > 100 | > 100 | > 100
COC(=O)[C@H](Cc1ccccc1)NP(=O)(O)OCC1C=CC(n2cc(C)c(=O)[nH]c2=O)O1 (some centres not stated) | > 100 | > 100 | > 100 | > 100 | > 100 | > 100 | > 100 | > 100 | > 100 |  | > 100 | > 100 | > 100 | > 100 | > 100 | > 100 | > 100 |  | > 100
O=C1c2ccccc2-c2nc(/C=C/c3ccccc3)cc3c2c1nc1ccccc13 | > 100 | 25.7 | 47.7 | 32.2 | 68.4 |  | > 100 | 76.3 | > 100 |  | > 100 | > 100 | 40.8 |  | > 100 | 92 | > 100 | 50.6 | > 100
